One molecule from US20160000852A1, “NUTRIENT COMBINATIONS FOR AFFECTING AN AGING PROCESS” (BioMarker Pharmaceuticals, Inc., priority 2013, published 2016) can be followed below.

Common to all, as to assay type: in vivo
The test system of experiment [1] is D-gal exposed mice. Kind of experiment: Spatial memory test with the Morris Water Maze (MWM). The following applies: D-gal exposure 125 mg/kg/d, 8 weeks; 12 animals. An excerpt:
The Morris Walter Maze (MWM) was applied to measure cognitive deficiencies in D-gal exposed mice. […] In particular, FIG. 1A illustrates the latency time for finding a platform of control subjects, D-gal subjects and subjects administered Formulas A-C over a period of training days. The subjects, in this case, were mice. Values are illustrated as mean ±SEM of 12 animals. […] In addition, FIG. 1B illustrates the latency distance to the platform of control subjects, D-gal subjects and subjects administered Formulas A-C over the same period of training days as illustrated in FIG. 1A.

Experiment [2] has as its system D-gal exposed mice. Kind of experiment: Coordination test with the Rota-Rod. The following applies: 12 animals. As for the experimental part: FIG. 2 illustrates a coordination test with the Rota-Rod. In addition, latency to fall was tested. Values are mean ±SEM of 12 animals.
Background: In the rotarod test animals must keep their balance on a rotating rod.

Experiment [3] concerns D-gal exposed mice. Briefly: Grip strength test (forelimb). As to conditions: 12 mice. As for the experimental part: It should further be understood that a decrease in strength is a reliable indicator of the aging process. In this aspect, the rodent grip strength test is a putative measure of muscular strength and has been previously used to screen for neuromuscular function. FIG. 3 illustrates the results of a grip strength test. In particular, grip strength of forelimb was tested. Values are means ±SEM of 12 mice. **P<0.01 versus Normal group, ^##P<0.01 versus D-gal group, ^###P<0.001 versus D-gal group.

Experiment [4] deals with mitochondria of gastrocnemius muscle. Kind of experiment: Transmission electron microscopy of gastrocnemius muscle mitochondria. As to conditions: D-gal exposed mice. From the text: To understand the grip strength loss caused by D-gal exposure, the morphology of mice gastrocnemius muscles were further evaluated with transmission electron microscopy. FIGS. 4A-4E illustrate the transmission electron microscopy results of the gastrocnemius muscle. In particular, FIG. 4A illustrates the transmission electron microscopy for the control group of subjects (i.e. mice), FIG. 4B illustrates the transmission electron microscopy for the D-gal group, FIG. 4C illustrates the transmission electron microscopy for the Formula A group, FIG. 4D illustrates the transmission electron microscopy for the Formula B group, FIG. 4E illustrates the transmission electron microscopy for the Formula C group. A magnified view of the upper panels in FIGS. 4A-4E are shown in the lower panels.

For experiment [5], the system named is complex I in gastrocnemius mitochondria. Briefly: Complex I activity in gastrocnemius mitochondria. The following applies: D-gal exposed mice; n=12. The protocol: In view of the abnormal mitochondrial morphology in the skeletal muscle of the D-gal treated mice, the activities of some key enzymes in the electron transport chain (ETC) and the tricarboxylic acid (TCA) cycle were further examined.
(§1) FIG. 7 illustrates the effects of Formulas A-C on the activity of complex I in gastrocnemius and heart mitochondria. Activities of complex I of gastrocnemius (n=12) and heart (n=11) in all groups were assayed. All values are expressed as means ±SEM. **P<0.01 versus Normal group, ^#P<0.05 versus D-gal group, ^##P<0.01 versus D-gal group.

Experiment [6] has as its system complex I in heart mitochondria. Kind of experiment: Complex I activity in heart mitochondria. As to conditions: D-gal exposed mice; n=11. The protocol: The activity of complex I was also assayed in several other tissues, such as liver, heart, and brain. FIG. 6 illustrates activities of complex I in mitochondria from multiple tissues. As is illustrated by the results shown in FIG. 6, D-gal administration impairs the activity of complex I in gastrocnemius. Values are means ±SEM of 12 mice in gastroanemius, 11 mice in heart and 12 mice in brain and liver. **P<0.01 versus Normal group.
as §1

Consider `O=C[C@H](O)[C@@H](O)[C@@H](O)[C@H](O)CO` [D-gal, D-galactose], for which, in the experiment with D-gal exposed mice [1], the “spatial memory (latency time and latency distance to platform) in MWM” value is “did not affect the escape latency or swimming distance”. Also, in the experiment on D-gal exposed mice [2], the “motor coordination (latency to fall) in Rota-Rod test” value was “No difference in latency time”. Besides, in the experiment with D-gal exposed mice [3], the “grip strength of forelimb” value is given as “significantly weaker grip strength”. Further, in experiment [4], the “mitochondrial morphology in gastrocnemius muscle” value was “swollen and elongated mitochondria with obvious cristae disruption”. In experiment [5], the “complex I activity in gastrocnemius (skeletal muscle) mitochondria” value is “only complex I activity was impaired”. Further, the “complex I activity in heart mitochondria” value in experiment [6] was “marginal decrease in heart muscle”.
